Assay results taken from PubChem BioAssay AID1845200 (Molecular Pharmacology Branch, DTP, NCI, 2023).
Values joined by “and” are separate entries in the source; they are usually repeats but may differ in a detail not shown here. Equal values may be shown once. Active and inactive are the calls of the source. How the source made its calls: active means viability on the fitted dose curve at most 10% of control; inactive means the rest.

Tested on: ASPS-1 complex tumor spheroids, viability
Experiment: Anticancer human tumor ASPS-1 cell line growth inhibition;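 further: spheroids exposed to agents for 7 days after 3 days of growth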;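 on viability, T/C: 100% = DMSO vehicle treated spheroids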
Settings: for viability, T/C: stronger effect = lower value
In short: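 Complex tumor spheroids combined malignant cells with endothelial cells and mesenchymal stem cells. DNA-damaging drugs and DNA repair inhibitors were tested alone and in combination, at half-log dilutions down from clinical Cmax (top 10 microM if Cmax unknown), 0.25% DMSO final.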

[1] = curve of first compound, second compound 1 µM
[2] = curve of first compound, second compound 3.16 µM
[3] = curve of first compound, second compound 10 µM
[4] = curve of first compound, second compound 31.6 µM
[5] = curve of first compound, second compound 100 µM
[6] = second compound 1 µM, first compound 0.00949 µM
[7] = second compound 1 µM, first compound 0.03 µM
[8] = second compound 1 µM, first compound 0.0949 µM
[9] = second compound 1 µM, first compound 0.3 µM
[10] = second compound 1 µM, first compound 0.949 µM
[11] = second compound 1 µM, first compound 3 µM
[12] = second compound 3.16 µM, first compound 0.00949 µM
[13] = second compound 3.16 µM, first compound 0.03 µM
[14] = second compound 3.16 µM, first compound 0.0949 µM
[15] = second compound 3.16 µM, first compound 0.3 µM
[16] = second compound 3.16 µM, first compound 0.949 µM
[17] = second compound 3.16 µM, first compound 3 µM
[18] = second compound 10 µM, first compound 0.00949 µM
[19] = second compound 10 µM, first compound 0.03 µM
[20] = second compound 10 µM, first compound 0.0949 µM
[21] = second compound 10 µM, first compound 0.3 µM
[22] = second compound 10 µM, first compound 0.949 µM
[23] = second compound 10 µM, first compound 3 µM
[24] = second compound 31.6 µM, first compound 0.00949 µM
[25] = second compound 31.6 µM, first compound 0.03 µM
[26] = second compound 31.6 µM, first compound 0.0949 µM
[27] = second compound 31.6 µM, first compound 0.3 µM
[28] = second compound 31.6 µM, first compound 0.949 µM
[29] = second compound 31.6 µM, first compound 3 µM
[30] = second compound 100 µM, first compound 0.00949 µM
[31] = second compound 100 µM, first compound 0.03 µM
[32] = second compound 100 µM, first compound 0.0949 µM
[33] = second compound 100 µM, first compound 0.3 µM
[34] = second compound 100 µM, first compound 0.949 µM
[35] = second compound 100 µM, first compound 3 µM

Cn1ncnc1[C@H]1c2n[nH]c(=O)c3cc(F)cc(c23)N[C@@H]1c1ccc(F)cc1 + Cn1nnc2c(C(N)=O)ncn2c1=O
> 3000 nM: IC50 [1] | IC50 [2] | IC50 [3] | IC50 [4] | IC50 [5]
inactive: viability, T/C [6] 98.8% | viability, T/C [7] 98.9% | viability, T/C [8] 97.5% | viability, T/C [9] 103% | viability, T/C [10] 96.3% | viability, T/C [11] 74.1% | viability, T/C [12] 99.7% | viability, T/C [13] 95% | viability, T/C [14] 96.2% | viability, T/C [15] 95.8% | viability, T/C [16] 91.1% | viability, T/C [17] 67.8% | viability, T/C [18] 86.2% | viability, T/C [19] 89.6% | viability, T/C [20] 80.1% | viability, T/C [21] 83.4% | viability, T/C [22] 71.7% | viability, T/C [23] 61.1% | viability, T/C [24] 78.5% | viability, T/C [25] 76.3% | viability, T/C [26] 76% | viability, T/C [27] 67% | viability, T/C [28] 56.5% | viability, T/C [29] 53.2% | viability, T/C [30] 56.4% | viability, T/C [31] 50.8% | viability, T/C [32] 52.2% | viability, T/C [33] 58.7% | viability, T/C [34] 54.5% | viability, T/C [35] 50.8%

Cc1sc2c(c1C)C(c1ccc(Cl)cc1)=NC(CC(=O)Nc1ccc(O)cc1)c1nnc(C)n1-2 (configuration not stated) + CC[C@@]1(O)C(=O)OCc2c1cc1n(c2=O)Cc2cc3c(CN(C)C)c(O)ccc3nc2-1
inactive: viability, T/C (second compound 0.003 µM, first compound 0.00949 µM) 105% | viability, T/C (second compound 0.003 µM, first compound 0.03 µM) 111% | viability, T/C (second compound 0.003 µM, first compound 0.0949 µM) 106% | viability, T/C (second compound 0.003 µM, first compound 0.3 µM) 107% | viability, T/C (second compound 0.003 µM, first compound 0.949 µM) 94.4% | viability, T/C (second compound 0.003 µM, first compound 3 µM) 84.2% | viability, T/C (second compound 0.00949 µM, first compound 0.00949 µM) 114% | outcome (second compound 0.00949 µM, first compound 0.03 µM) | viability, T/C (second compound 0.00949 µM, first compound 0.0949 µM) 118% | viability, T/C (second compound 0.00949 µM, first compound 0.3 µM) 109% | viability, T/C (second compound 0.00949 µM, first compound 0.949 µM) 97.8% | viability, T/C (second compound 0.00949 µM, first compound 3 µM) 88.5% | viability, T/C (second compound 0.03 µM, first compound 0.00949 µM) 100% | viability, T/C (second compound 0.03 µM, first compound 0.03 µM) 105% | viability, T/C (second compound 0.03 µM, first compound 0.0949 µM) 102% | viability, T/C (second compound 0.03 µM, first compound 0.3 µM) 94.4% | viability, T/C (second compound 0.03 µM, first compound 0.949 µM) 89.6% | viability, T/C (second compound 0.03 µM, first compound 3 µM) 77.4% | viability, T/C (second compound 0.0949 µM, first compound 0.00949 µM) 64.2% | viability, T/C (second compound 0.0949 µM, first compound 0.03 µM) 71.7% | viability, T/C (second compound 0.0949 µM, first compound 0.0949 µM) 77.2% | viability, T/C (second compound 0.0949 µM, first compound 0.3 µM) 71.2% | viability, T/C (second compound 0.0949 µM, first compound 0.949 µM) 66.9% | viability, T/C (second compound 0.0949 µM, first compound 3 µM) 58.8% | viability, T/C (second compound 0.3 µM, first compound 0.00949 µM) 52.1% | viability, T/C (second compound 0.3 µM, first compound 0.03 µM) 55.2% | viability, T/C (second compound 0.3 µM, first compound 0.0949 µM) 58.7% | viability, T/C (second compound 0.3 µM, first compound 0.3 µM) 55.3% | viability, T/C (second compound 0.3 µM, first compound 0.949 µM) 44.5% | viability, T/C (second compound 0.3 µM, first compound 3 µM) 33.7%
> 3000 nM: IC50 (curve of first compound, second compound 0.003 µM) | IC50 (curve of first compound, second compound 0.00949 µM) | IC50 (curve of first compound, second compound 0.03 µM) | IC50 (curve of first compound, second compound 0.0949 µM)
550 nM: IC50 (curve of first compound, second compound 0.3 µM)

CNCc1ccc(-c2cc(-c3nc(-c4ccc(S(=O)(=O)C(C)C)cc4)cnc3N)on2)cc1 + Cn1nnc2c(C(N)=O)ncn2c1=O
738 nM: IC50 [2]
active: viability, T/C [11] 7.06% | viability, T/C [35] 1.51%
inactive: viability, T/C [6] 104% | viability, T/C [7] 104% | viability, T/C [8] 105% | viability, T/C [9] 72.5% | viability, T/C [10] 31.1% | viability, T/C [12] 109% | viability, T/C [13] 106% | viability, T/C [14] 92.6% | viability, T/C [15] 69.3% | viability, T/C [16] 45.6% | viability, T/C [17] 9.69% | viability, T/C [18] 98.8% | viability, T/C [19] 103% | viability, T/C [20] 87% | viability, T/C [21] 40% | viability, T/C [22] 30.4% | viability, T/C [23] 6.72% | viability, T/C [24] 88.5% | viability, T/C [25] 78.9% | viability, T/C [26] 67.4% | viability, T/C [27] 48.7% | viability, T/C [28] 31.2% | viability, T/C [29] 12.9% | viability, T/C [30] 79.1% | viability, T/C [31] 78.4% | viability, T/C [32] 58.2% | viability, T/C [33] 41.6% | viability, T/C [34] 21.7%
292 nM: IC50 [4]
184 nM: IC50 [5]
259 nM: IC50 [3]
565 nM: IC50 [1]

O=C(c1cc(Cc2n[nH]c(=O)c3ccccc23)ccc1F)N1CCN(C(=O)C2CC2)CC1
inactive: viability, T/C (compound 0.0949 µM) 97.9% and 107% and 106% | viability, T/C (compound 0.3 µM) 95% and 115% and 111% | viability, T/C (compound 0.949 µM) 95.6% and 107% and 108% | viability, T/C (compound 3 µM) 101% and 108% and 102% | viability, T/C (compound 9.49 µM) 101% and 111% and 103% | viability, T/C (compound 30 µM) 89.2% and 97.1% and 60.3%
> 30000 nM: IC50 (curve of compound)
